According to PMC9958325 (Nature Communications, 2023):
“And” between values parts separate entries of the source, which are not always exact repeats. Equal values may be shown once. Read-outs that look alike come from different tables or passages of the source.

Experiments:
[1] = Pharmacokinetic study in PXB-mice (human liver-chimeric); details: for Plasma concentration: p.o., individual animals (3 per time point), LC/MS/MS
[2] = test system: SARS-CoV-2 TKYTS14631/ο BA.5; assay: microbe, parasite or virus in culture; type: cell-based
human calpain = target: T1, human calpain (Homo sapiens, UniProt P07384); assay: Human calpain activity assay; type: biochemical; details: triplicate, read-out: %inhibition against humanCalpain
T1 sequence (P07384 2-714): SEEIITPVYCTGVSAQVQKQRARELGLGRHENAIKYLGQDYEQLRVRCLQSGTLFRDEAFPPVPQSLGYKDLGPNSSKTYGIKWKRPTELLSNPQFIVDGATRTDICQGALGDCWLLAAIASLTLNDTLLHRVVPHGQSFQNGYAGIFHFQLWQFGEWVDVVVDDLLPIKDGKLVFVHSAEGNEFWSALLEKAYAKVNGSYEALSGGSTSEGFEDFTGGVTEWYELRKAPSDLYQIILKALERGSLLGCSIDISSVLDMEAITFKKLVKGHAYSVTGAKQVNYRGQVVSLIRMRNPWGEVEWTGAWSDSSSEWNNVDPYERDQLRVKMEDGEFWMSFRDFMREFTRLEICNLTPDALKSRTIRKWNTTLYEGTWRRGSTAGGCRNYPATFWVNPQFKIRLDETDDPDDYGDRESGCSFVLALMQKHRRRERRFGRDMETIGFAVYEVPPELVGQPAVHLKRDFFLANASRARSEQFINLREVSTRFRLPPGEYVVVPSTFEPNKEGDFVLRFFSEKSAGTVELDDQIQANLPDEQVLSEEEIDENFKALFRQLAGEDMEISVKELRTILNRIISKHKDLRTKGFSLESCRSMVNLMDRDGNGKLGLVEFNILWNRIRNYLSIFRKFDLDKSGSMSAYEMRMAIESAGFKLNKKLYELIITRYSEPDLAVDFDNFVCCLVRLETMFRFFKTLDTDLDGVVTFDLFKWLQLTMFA
T1 sequence (P04632 1-268 partner): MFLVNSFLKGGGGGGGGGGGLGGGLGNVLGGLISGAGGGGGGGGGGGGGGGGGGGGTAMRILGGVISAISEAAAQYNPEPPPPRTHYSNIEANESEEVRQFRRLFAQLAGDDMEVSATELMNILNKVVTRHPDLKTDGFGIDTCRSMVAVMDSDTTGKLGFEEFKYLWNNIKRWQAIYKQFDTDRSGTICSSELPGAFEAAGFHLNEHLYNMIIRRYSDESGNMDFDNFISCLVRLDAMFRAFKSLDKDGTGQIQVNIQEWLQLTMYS

[3] = test system: SARS-CoV-2^WK521 in A549-ACE2-TMPRSS2 cells; assay: Antiviral assay, A549-ACE2-TMPRSS2 cells, WK521; type: cell-based
[4] = test system: SARS-CoV-2^WK521 in HeLa-ACE2-TMPRSS2 cells; assay: Antiviral assay, HeLa-ACE2-TMPRSS2 cells, WK521; type: cell-based
HeLa-ACE2-TMPRSS2 cells = assay: Intracellular concentrations of compounds (LC/MS), HeLa-ACE2-TMPRSS2 cells; details: for Intracellular amount, avg / Intracellular amount, individual: 6 h; for intracellular compound, /1x10^6: calculated value per cell count; for intracellular compound, calculated value /20uL: from AUC against pmol standard curve
[5] = test system: SARS-CoV-2 TKYS02037/ο BA.2; assay: microbe, parasite or virus in culture; type: cell-based
[6] = test system: SARS-CoV-2 TKYX00012/ο BA.1; assay: microbe, parasite or virus in culture; type: cell-based
[7] = test system: SARS-CoV-2 UT-NCD1757-1N/ο BA.2.75; assay: microbe, parasite or virus in culture; type: cell-based
[8] = Hela ACE2 TMPRSS2, drug 10, duplicates
[9] = Hela ACE2 TMPRSS2, drug 50, duplicates
[10] = Hela ACE2 TMPRSS2, drug 100, duplicates

## CC(C)(C)[C@H](NC(=O)C(F)(F)F)C(=O)N1C[C@H]2[C@@H]([C@H]1C(=O)N[C@H](C#N)C[C@@H]1CCNC1=O)C2(C)C [Nirmatrelvir, reference compound]
[1]; male, PXB (human liver-chimeric), mouse, plasma, po, 10 mg/kg, Plasma concentration, PXB-mice, p.o. 10 mg/kg, 24 hr, individual mice
  concentration at 24 hr: 0 ng/mL
[1]; 10 min
  Plasma concentration: 889.46 ng/mL and 980.64 ng/mL
[1]; 60 min
  Plasma concentration: 653.07 ng/mL and 318.79 ng/mL and 406.97 ng/mL
[1]; 240 min
  Plasma concentration: 34.58 ng/mL and 30.74 ng/mL
[1]; 480 min
  Plasma concentration: 4.42 ng/mL and 7.44 ng/mL and 18.67 ng/mL
[1]; 1440 min
  Plasma concentration: 0.61 ng/mL and 0.54 ng/mL
[2]; Severe acute respiratory syndrome coronavirus 2, Vero C1008, read-out: EC50 against TKYTS14631/ο BA.5
  EC50: 1080 ± 150 nM
[2]; Severe acute respiratory syndrome coronavirus 2, Vero C1008, read-out: EC50 ο BA5, Average
  EC50: 1080 nM
[2]; Severe acute respiratory syndrome coronavirus 2, Vero C1008, read-out: EC50 ο BA5, individual assays
  EC50: 999 nM
[2]; read-out: EC50 ο BA5, individual assays
  EC50: 988 nM and 1250 nM
Human calpain; 0.000128 µM
  inhibition at 0.000128 µM: 0%
Human calpain; 0.00064 µM
  inhibition at 0.00064 µM: 0%
Human calpain; 0.0032 µM
  inhibition at 0.0032 µM: 0%
Human calpain; 0.08 µM
  inhibition at 0.08 µM: 0%
Human calpain; 0.4 µM
  inhibition at 0.4 µM: 0%
[3]; Severe acute respiratory syndrome coronavirus 2, SARS-CoV-2^WK521, read-out: EC50, A549-ACE2-TMPRSS2
  EC50: 17 ± 3 nM
[3]; Severe acute respiratory syndrome coronavirus 2, source data, read-out: EC50, A549-AEC2-TMPRSS2, Average
  EC50: 17.4 nM
[3]; Severe acute respiratory syndrome coronavirus 2, source data, read-out: EC50, A549-AEC2-TMPRSS2, individual assays
  EC50: 20 nM
[3]; source data, read-out: EC50, A549-AEC2-TMPRSS2, individual assays
  EC50: 17.4 nM and 14.8 nM
[4]; Severe acute respiratory syndrome coronavirus 2, SARS-CoV-2^WK521, read-out: EC50, HeLa-ACE2-TMPRSS2
  EC50: 240 ± 50 nM
[4]; Severe acute respiratory syndrome coronavirus 2, read-out: EC50, HeLa-AEC2-TMPRSS2, individual assays, source data
  EC50: 300 nM
[4]; Severe acute respiratory syndrome coronavirus 2, source data, read-out: EC50, HeLa-AEC2-TMPRSS2, Average
  EC50: 237 nM
[4]; read-out: EC50, HeLa-AEC2-TMPRSS2, individual assays, source data
  EC50: 200 nM and 210 nM
HeLa-ACE2-TMPRSS2 cells; Hela ACE2 TMPRSS2, 10uM
  Intracellular amount, avg: 0.5065 pmol(total)
  Intracellular amount, individual: 0.5088 pmol(total) and 0.5041 pmol(total)
HeLa-ACE2-TMPRSS2 cells; Hela ACE2 TMPRSS2, 50uM
  Intracellular amount, avg: 1.799 pmol(total)
  Intracellular amount, individual: 1.518 pmol(total) and 2.08 pmol(total)
HeLa-ACE2-TMPRSS2 cells; Hela ACE2 TMPRSS2, 100uM
  Intracellular amount, avg: 3.821 pmol(total)
  Intracellular amount, individual: 3.049 pmol(total) and 4.592 pmol(total)
HeLa-ACE2-TMPRSS2 cells; [8]
  intracellular compound, pmol(total): 0.5088 pmol and 0.5041 pmol
  intracellular compound, /1x10^6: 0.2035 /1x10^6 and 0.2016 /1x10^6
  intracellular compound, calculated value /20uL: 0.53 /20uL and 0.52 /20uL
HeLa-ACE2-TMPRSS2 cells; [9]
  intracellular compound, pmol(total): 1.518 pmol and 2.08 pmol
  intracellular compound, /1x10^6: 0.6073 /1x10^6 and 0.832 /1x10^6
  intracellular compound, calculated value /20uL: 1.70 /20uL and 1.83 /20uL
HeLa-ACE2-TMPRSS2 cells; [10]
  intracellular compound, pmol(total): 3.049 pmol and 4.592 pmol
  intracellular compound, /1x10^6: 1.22 /1x10^6 and 1.837 /1x10^6
  intracellular compound, calculated value /20uL: 3.90 /20uL and 4.04 /20uL
[5]; Severe acute respiratory syndrome coronavirus 2, Vero C1008, read-out: EC50 against TKYVS2037/ο BA.2
  EC50: 1240 ± 125 nM
[5]; Severe acute respiratory syndrome coronavirus 2, Vero C1008, read-out: EC50 ο BA2, individual assays
  EC50: 1230 nM
[5]; read-out: EC50 ο BA2, individual assays
  EC50: 1120 nM and 1370 nM
[6]; Severe acute respiratory syndrome coronavirus 2, Vero C1008, read-out: EC50 against KTKYX00012/ο BA.1
  EC50: 1050 ± 61 nM
[6]; Severe acute respiratory syndrome coronavirus 2, Vero C1008, read-out: EC50 ο BA1, Average
  EC50: 1050 nM
[6]; Severe acute respiratory syndrome coronavirus 2, Vero C1008, read-out: EC50 ο BA1, individual assays
  EC50: 1100 nM
[6]; read-out: EC50 ο BA1, individual assays
  EC50: 1060 nM and 980 nM
[7]; Severe acute respiratory syndrome coronavirus 2, Vero C1008, read-out: EC50 against UT-NCD1757-1N/ο BA.2.75
  EC50: 967 ± 135 nM
[7]; Severe acute respiratory syndrome coronavirus 2, Vero C1008, read-out: EC50 ο BA2.75, Average
  EC50: 967 nM
[7]; Severe acute respiratory syndrome coronavirus 2, Vero C1008, read-out: EC50 ο BA2.75, individual assays
  EC50: 830 nM
[7]; read-out: EC50 ο BA2.75, individual assays
  EC50: 970 nM and 1100 nM
